US20250122218A1, “MODULATORS OF CYSTIC FIBROSIS TRANSMEMBRANE CONDUCTANCE REGULATOR” (Vertex Pharmaceuticals Incorporated, priority 2022, published 2025)

Biological target: T1, CFTR in F508del/MF-HBE cells (Homo sapiens, UniProt P13569, DEL508-508)
T1 construct: human bronchial epithelial (HBE) cells derived from CF subjects heterozygous for F508del and a minimal function CFTR mutation; endogenous in cells; host or cells: primary human bronchial epithelial cells from CF subjects (F508del/MF-HBE)
T1 sequence (P13569 with tags, fused parts or gaps DEL508-508): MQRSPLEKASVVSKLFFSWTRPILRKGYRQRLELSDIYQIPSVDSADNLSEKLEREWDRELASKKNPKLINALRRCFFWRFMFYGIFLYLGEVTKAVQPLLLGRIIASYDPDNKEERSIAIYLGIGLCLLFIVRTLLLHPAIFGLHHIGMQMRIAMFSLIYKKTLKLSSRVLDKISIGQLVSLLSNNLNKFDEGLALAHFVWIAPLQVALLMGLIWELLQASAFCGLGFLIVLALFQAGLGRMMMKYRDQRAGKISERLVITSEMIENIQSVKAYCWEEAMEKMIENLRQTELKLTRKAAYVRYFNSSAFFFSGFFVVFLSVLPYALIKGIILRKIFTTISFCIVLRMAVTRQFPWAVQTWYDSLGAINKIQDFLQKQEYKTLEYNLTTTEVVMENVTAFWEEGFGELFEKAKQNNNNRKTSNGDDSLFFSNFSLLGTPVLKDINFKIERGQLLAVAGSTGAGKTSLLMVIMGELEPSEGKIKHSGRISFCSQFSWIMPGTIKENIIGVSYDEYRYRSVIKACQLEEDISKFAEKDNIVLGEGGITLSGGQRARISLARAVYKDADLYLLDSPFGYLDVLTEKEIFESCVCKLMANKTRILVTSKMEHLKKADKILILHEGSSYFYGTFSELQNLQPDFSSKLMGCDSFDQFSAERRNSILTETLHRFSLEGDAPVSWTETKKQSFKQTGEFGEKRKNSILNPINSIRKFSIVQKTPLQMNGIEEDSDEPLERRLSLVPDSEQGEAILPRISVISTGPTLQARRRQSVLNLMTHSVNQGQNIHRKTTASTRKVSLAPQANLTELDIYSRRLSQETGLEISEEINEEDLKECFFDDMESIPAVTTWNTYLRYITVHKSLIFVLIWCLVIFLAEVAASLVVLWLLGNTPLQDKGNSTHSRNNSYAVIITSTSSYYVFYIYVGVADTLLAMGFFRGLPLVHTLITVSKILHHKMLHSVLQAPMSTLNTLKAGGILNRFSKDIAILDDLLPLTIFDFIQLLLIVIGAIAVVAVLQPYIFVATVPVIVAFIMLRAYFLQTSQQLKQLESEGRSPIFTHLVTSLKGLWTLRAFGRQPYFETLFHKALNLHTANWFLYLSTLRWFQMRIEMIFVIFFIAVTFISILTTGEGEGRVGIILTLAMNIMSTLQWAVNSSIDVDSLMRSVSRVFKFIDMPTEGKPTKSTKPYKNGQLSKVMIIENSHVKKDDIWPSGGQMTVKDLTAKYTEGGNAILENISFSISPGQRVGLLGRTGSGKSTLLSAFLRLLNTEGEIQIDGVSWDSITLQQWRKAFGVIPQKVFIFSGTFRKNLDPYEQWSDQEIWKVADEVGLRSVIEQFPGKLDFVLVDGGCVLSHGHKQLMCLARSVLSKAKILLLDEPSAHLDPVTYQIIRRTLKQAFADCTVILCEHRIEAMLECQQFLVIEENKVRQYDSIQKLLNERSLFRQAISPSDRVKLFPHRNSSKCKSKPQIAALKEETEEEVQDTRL
Assay: Ussing chamber assay of CFTR-mediated short-circuit currents (identification of potentiator compounds)
Assay type: cell-based
Conditions: potentiator incubated 18-24 hours at 37° C. in combination with 10 μM corrector, in the presence of 20% human serum, CFTR-mediated ISC
Outline: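 F508del/MF-HBE cultures were preincubated 18-24 h at 37° C with potentiator plus 10 μM of a fixed corrector compound in 20% human serum; compounds were kept present during measurement. ISC was recorded under voltage clamp (0 mV, 37° C, amiloride apical) and taken as the 20 μM forskolin peak minus the current after inhibitor cocktail.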

Structure (SMILES)	EC50
CC(C)CN1CCCCC(O)(C(F)(F)F)C2=NN=C(O2)c2nc(c(C(F)(F)F)cc2N)C1=O (single isomer, unassigned) [Compound 232, 16-amino-6-hydroxy-11-isobutyl-6,14-bis(trifluoromethyl)-18-oxa-3,4,11,17-tetrazatricyclo [11.3.1.12,5] octadeca-1(17),2,4,13,15-pentaen-12-one]	< 500 nM
CC(C)CN1CCCCC(O)(C(F)(F)F)C2=NN=C(O2)c2nc(c(C(F)(F)F)cc2N)C1=O (single isomer, unassigned) [Compound 233, 16-amino-6-hydroxy-11-isobutyl-6,14-bis(trifluoromethyl)-18-oxa-3,4,11,17-tetrazatricyclo [11.3.1.12,5] octadeca-1(17),2,4,13,15-pentaen-12-one]	< 500 nM
Nc1cc(C(F)(F)F)c2nc1-c1nnc(o1)C(O)(C(F)(F)F)CCCCN(Cc1ccc(OC(F)(F)F)cc1)C2=O (single isomer, unassigned) [Compound 234, 16-amino-6-hydroxy-11-[[4-(trifluoromethoxy)phenyl]methyl]-6,14-bis(trifluoromethyl)-18-oxa-3,4,11,17-tetrazatricyclo [11.3.1.12,5] octadeca-1(17),2,4,13,15-pentaen-12-one]	< 500 nM
Nc1cc(C(F)(F)F)c2nc1-c1nnc(o1)[C@@](O)(C(F)(F)F)CCCCCCC2=O [Compound 6, (6R)-17-amino-6-hydroxy-6,15-bis(trifluoromethyl)-19-oxa-3,4,18-triazatricyclo[12.3.1.12,5]nonadeca-1(18),2,4,14,16-pentaen-13-one]	< 500 nM
Cn1cc2c(n1)-c1nc(c(N)cc1C(F)(F)F)-c1nnc(o1)C(O)(C(F)(F)F)CCCCC2 (stereo not shown) [Compound 24, 20-Amino-14-methyl-6,18-bis(trifluoromethyl)-22-oxa-3,4,14,15,21-pentaazatetracyclo[15.3.1.12,5.012,16]docosa-1(21),2,4,12,15,17,19-heptaen-6-ol]	> 1000 nM
Nc1cc(C(F)(F)F)c2nc1-c1nnc(o1)[C@@](O)(C(F)(F)F)CCCC(F)(F)CCC2=O [Compound 38, (6R)-17-amino-10,10-difluoro-6-hydroxy-6,15-bis(trifluoromethyl)-19-oxa-3,4,18-triazatricyclo[12.3.1.12,5]nonadeca-1(18),2,4,14,16-pentaen-13-one]	< 500 nM
Nc1cc(C(F)(F)F)c2nc1-c1nnc(o1)[C@](O)(C(F)(F)F)CCCC(F)(F)CCC2=O [Compound 39, (6S)-17-amino-10,10-difluoro-6-hydroxy-6,15-bis(trifluoromethyl)-19-oxa-3,4,18-triazatricyclo[12.3.1.12,5]nonadeca-1(18),2,4,14,16-pentaen-13-one]	500 to 1000 nM
Nc1cc(C(F)(F)F)c2nc1-c1nnc(o1)[C@@](O)(C(F)(F)F)CCC(F)(F)CCCC2=O [Compound 40, (6R)-17-amino-9,9-difluoro-6-hydroxy-6,15-bis(trifluoromethyl)-19-oxa-3,4,18-triazatricyclo[12.3.1.12,5]nonadeca-1(18),2,4,14,16-pentaen-13-one]	< 500 nM
Nc1cc(C(F)(F)F)c2nc1-c1nnc(o1)[C@](O)(C(F)(F)F)CCC(F)(F)CCCC2=O [Compound 41, (6S)-17-amino-9,9-difluoro-6-hydroxy-6,15-bis(trifluoromethyl)-19-oxa-3,4,18-triazatricyclo[12.3.1.12,5]nonadeca-1(18),2,4,14,16-pentaen-13-one]	< 500 nM
Nc1cc(C(F)(F)F)c2nc1-c1nnc(o1)[C@@](O)(C(F)(F)F)CCCC(=O)CCC2(F)F [Compound 42, (6R)-17-Amino-13,13-difluoro-6-hydroxy-6,15-bis(trifluoromethyl)-19-oxa-3,4,18-triazatricyclo[12.3.1.12,5]nonadeca-1(18),2,4,14,16-pentaen-10-one]	< 500 nM
Nc1cc(C(F)(F)F)c2nc1-c1nnc(o1)[C@@](O)(C(F)(F)F)CCC(=O)CCCC2(F)F [Compound 43, (6R)-17-amino-13,13-difluoro-6-hydroxy-6,15-bis(trifluoromethyl)-19-oxa-3,4,18-triazatricyclo[12.3.1.12,5]nonadeca-1(18),2,4,14,16-pentaen-9-one]	< 500 nM
Nc1cc(C(F)(F)F)c2nc1-c1nnc(o1)[C@@](O)(C(F)(F)F)CC(F)(F)CCCCC2=O [Compound 44, (6R)-17-amino-8,8-difluoro-6-hydroxy-6,15-bis(trifluoromethyl)-19-oxa-3,4,18-triazatricyclo[12.3.1.12,5]nonadeca-1(18),2,4,14,16-pentaen-13-one]	< 500 nM
CC1(C)CCCCC[C@](O)(C(F)(F)F)C2=NN=C(O2)c2nc(c(C(F)(F)F)cc2N)C1=O [Compound 45, (6R)-17-amino-6-hydroxy-12,12-dimethyl-6,15-bis(trifluoromethyl)-19-oxa-3,4,18-triazatricyclo[12.3.1.12,5]nonadeca-1(18),2,4,14,16-pentaen-13-one]	< 500 nM

Further lines, results first:

EC50	Structure (SMILES)
< 500 nM	Nc1cc(C(F)(F)F)c2nc1-c1nnc(o1)C(O)(C(F)(F)F)CCCCN(Cc1ccc(OC(F)(F)F)cc1)C2=O (single isomer, unassigned) [Compound 235, 16-amino-6-hydroxy-11-[[4-(trifluoromethoxy)phenyl]methyl]-6,14-bis(trifluoromethyl)-18-oxa-3,4,11,17-tetrazatricyclo [11.3.1.12,5] octadeca-1(17),2,4,13,15-pentaen-12-one]
< 500 nM	Nc1cc(C(F)(F)F)c2nc1-c1nnc(o1)C(O)(C(F)(F)F)CCCCCN(Cc1ccc(Br)cc1)C2=O (single isomer, unassigned) [Compound 236, 17-amino-12-[(4-bromophenyl)methyl]-6-hydroxy-6,15-bis(trifluoromethyl)-19-oxa-3,4,12,18-tetrazatricyclo [12.3.1.12,5] nonadeca-1(18),2,4,14,16-pentaen-13-one]
< 500 nM	Nc1cc(C(F)(F)F)c2nc1-c1nnc(o1)C(O)(C(F)(F)F)CCCCN(Cc1ccccc1)C2=O (single isomer, unassigned) [Compound 238, 16-amino-11-benzyl-6-hydroxy-6,14-bis(trifluoromethyl)-18-oxa-3,4,11,17-tetrazatricyclo [11.3.1.12,5] octadeca-1(17),2,4,13,15-pentaen-12-one]
< 500 nM	Nc1cc(C(F)(F)F)c2nc1-c1nnc(o1)C(O)(C(F)(F)F)CCCCN(Cc1ccccc1)C2=O (single isomer, unassigned) [Compound 239, 16-amino-11-benzyl-6-hydroxy-6,14-bis(trifluoromethyl)-18-oxa-3,4,11,17-tetrazatricyclo [11.3.1.12,5] octadeca-1(17),2,4,13,15-pentaen-12-one]
< 500 nM	Nc1cc(C(F)(F)F)c2nc1-c1nnc(o1)C(O)(C(F)(F)F)CCCCNC2=O (single isomer, unassigned) [Compound 249, 16-amino-6-hydroxy-6,14-bis(trifluoromethyl)-18-oxa-3,4,11,17-tetrazatricyclo [11.3.1.12,5] octadeca-1(17),2,4,13,15-pentaen-12-one]
> 1000 nM	Nc1cc(C(F)(F)F)c2nc1-c1nnc(o1)C(O)(C(F)(F)F)CCCCNC2=O (single isomer, unassigned) [Compound 250, 16-amino-6-hydroxy-6,14-bis(trifluoromethyl)-18-oxa-3,4,11,17-tetrazatricyclo [11.3.1.12,5] octadeca-1(17),2,4,13,15-pentaen-12-one]
